For 44 compounds, IC50 results are on record in patent publication US9550763B2, “Heterocyclic ring and carbocyclic derivative” (Shionogi & Co., Ltd., priority 2012, dated 2017).

human P2X3 receptor, sequence (P56373 whole entry): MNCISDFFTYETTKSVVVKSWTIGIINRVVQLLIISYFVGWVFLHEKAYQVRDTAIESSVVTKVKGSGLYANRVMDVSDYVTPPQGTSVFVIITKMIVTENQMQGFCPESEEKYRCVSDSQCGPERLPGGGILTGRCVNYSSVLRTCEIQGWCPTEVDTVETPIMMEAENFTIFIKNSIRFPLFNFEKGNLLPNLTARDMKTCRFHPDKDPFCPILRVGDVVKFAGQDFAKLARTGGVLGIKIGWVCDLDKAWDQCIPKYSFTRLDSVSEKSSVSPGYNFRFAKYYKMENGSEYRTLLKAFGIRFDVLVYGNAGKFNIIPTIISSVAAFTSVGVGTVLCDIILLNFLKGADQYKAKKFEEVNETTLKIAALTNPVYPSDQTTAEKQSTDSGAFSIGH

This experiment has as its target human P2X3 receptor (Homo sapiens (Human), UniProt P56373). As to the kind of experiment: Evaluation of human P2X3 receptor inhibitory activity (Test Example 1-1, FDSS 3000, 96-well, 50 nM ATP). In kind it is cell-based. To be noted: human P2X3 receptor in C6BU-1 cells; Test Example 1-1 (compounds I-001 to I-300). On the procedure: Stably expressing cell line (C6BU-1 cell transfected with human P2X3 receptor gene (GenBank accession number Y07683) was used. The cells were seeded in a 96-well microtiter plate at a concentration of 8000 cells/well and cultured in the medium (7.0% fetal bovine serum, 7.0% horse serum, 1% antibiotic and antifungal in DMEM) for one day at 37° C. under 5% carbon dioxide atmosphere. The medium was replaced with 4 μM Fluo-3-AM solution (20 mM HEPES, 137 mM NaCl, 5.27 mM KCl, 0.9 mM MgCl2, 1.26 mM CaCl2, 5.6 mM D-glucose, 2.5 mM probenecid, 1% BSA, and 0.08% Pluronic F-127, pH 7.5) and incubated at 37° C. under 5% dioxide carbon atmosphere for one hour. The plate was washed with washing buffer (20 mM HEPES, 137 mM NaCl, 5.27 mM KCl, 0.9 mM MgCl2, 1.26 mM CaCl2, 5.6 mM D-glucose, 2.5 mM probenecid, pH7.5), and each well was added with 40 μL of this buffer. The plate was placed in High-Throughput Screening System. FDSS 3000 (Hamamatsu Photonics K.K.). Measurement of fluorescence intensity by FDSS 3000 was started, and 40 μL of DMSO solutions containing different concentrations of the test compound as prepared by dilution with dilution buffer (20 mM HEPES, 137 mM NaCl, 5.27 mM KCl, 0.9 mM MgCl2, 1.26 mM CaCl2, 5.68 mM D-glucose, 2.5 mM probenecid, 0.1% Pluronic F-127, pH7.5) were dispensed to each well through the built-in automatic dispenser. Five minutes after, 50 nM ATP solution (50 μL) prepared by dilution with the dilution buffer was dispensed through the built-in automatic dispenser, and the measurement of fluorescence intensity was continued for 4 min. For each well, the specific maximum fluorescence intensity was calculated as the ratio of the maximum fluorescence intensity after addition of the ATP solution to the fluorescence intensity at the starting of the measurement. The 50% inhibitory concentration (IC50) was calculated under the assumption that the specific maximum fluorescence intensity without test compound is 0% inhibition and that the specific maximum fluorescence intensity when the dilution buffer was added in place of ATP solution is 100% inhibition, to evaluate the inhibitory activity of the test compound. FDSS software (Hamamatsu Photonics K.K.) was used for calculation of the specific maximum fluorescence intensity. IC50 was calculated using Microsoft Excel (Microsoft Corporation) and XLfit (idbs Ltd.)
The data of the compounds I-001 to I-300 are the results by the method mentioned in Test Example 1-1, and the data of the compounds I-301 to I-483 are the results by the method mentioned in Test Example 1-2.
For `CCn1c(=O)cc(Nc2ccc(Oc3cccc(C(=O)O)c3)cc2)n(Cc2ccc(Cl)cc2)c1=O` [Compound I-023, 1-(4-chlorobenzyl)-3-ethyl-6-[4-(3-hydroxycarbonylphenoxy)phenylamino]pyrimidin-2,4(1H,3H)-dione], the concentration for half-maximal inhibition (IC50) – broadly, the concentration needed to halve the response being measured – was 3 nM.
The value for `COC(=O)[C@@H](C)Cn1c(=O)cc(Nc2ccc(Oc3cccc(F)c3)c(C)n2)n(Cc2ccc(Cl)cc2)c1=O` [Compound I-244] was 646 nM.
The value for `N#C/N=C(/Nc1c[nH]/c(=N\c2ccc(Oc3ccon3)cc2)n(Cc2ccc(Cl)cc2)c1=O)Oc1ccccc1` [Compound I-237] was 219 nM.
`Cc1noc(-c2c[nH]/c(=N\c3ccc(Oc4ccc(F)cn4)cc3)n(Cc3ccc(Cl)cc3)c2=O)n1` [Compound I-151]: half-maximal inhibition (IC50) was put at 31 nM.
`CC(=O)Nc1cnc(Nc2ccc(Oc3cccnn3)cc2)n(Cc2ccc(Cl)cc2)c1=O` [Compound I-069] gave an IC50 of 68 nM.
The result for `CCC(=O)N(CC)c1c[nH]/c(=N\c2ccc(Oc3cccc(C(=O)O)n3)cc2)n(Cc2ccc(Cl)cc2)c1=O` [Compound I-193] reads 6 nM; that for `CCCn1c(=O)cc(Nc2ccc(Oc3cccc(C(=O)O)c3)cn2)n(Cc2ccc(Cl)cc2)c1=O` [Compound I-167], 35 nM.
The value for `CCn1c(=O)cc(Nc2ccc(Oc3cccc(C(N)=O)n3)cc2)n(Cc2ccc(Cl)cc2)c1=O` [Compound I-025] was 6 nM; that for `O=C(Nc1c[nH]/c(=N\c2ccc(Oc3ccon3)cc2)n(Cc2ccc(Cl)cc2)c1=O)c1cccnc1` [Compound I-265] was 48 nM.
The result for `CCc1oc2ccc(/N=c3\[nH]cc(CC(C)=O)c(=O)n3Cc3ccc(Cl)cc3)cc2c1C` [Compound I-102] reads 267 nM; that for `CCn1c(=O)cc(Nc2ccc(Oc3cccc(C#N)n3)cn2)n(Cc2ccc(Cl)cc2)c1=O` [Compound I-124], 19 nM.
Compound `O=C(Nc1c[nH]/c(=N\c2ccc(Oc3ccon3)cc2)n(Cc2ccc(Cl)cc2)c1=O)C1CCOC1` (centres unmarked) [Compound I-192] displayed an IC50 of 6 nM.
The result for `CCCn1c(=O)cc(Nc2ccc(Oc3cnc(C(=O)O)nc3)cn2)n(Cc2ccc(Cl)cc2)c1=O` [Compound I-201] reads 96 nM; that for `Cc1oncc1C(=O)Nc1c[nH]/c(=N\c2ccc(Oc3ccon3)cc2)n(Cc2ccc(Cl)cc2)c1=O` [Compound I-269], 16 nM.
With `NC(=O)c1cccc(Oc2ccc(/N=c3\[nH]cc(C(N)=O)c(=O)n3Cc3ccc(Cl)cc3)cc2)n1` [Compound I-178], half-maximal inhibition (IC50) required 14 nM.
The value for `COc1cccc(Oc2ccc(/N=c3\[nH]cc(C(N)=O)c(=O)n3Cc3ccc(Cl)cc3)cc2C)n1` [Compound I-140] was 99 nM; that for `Cc1cc(Nc2nc(=O)c(C(=O)NC3CCOCC3)cn2Cc2ccc(Cl)cc2)ccc1Oc1ncccc1F` [Compound I-160] was 26 nM.
The value for `Cc1cc(/N=c2\[nH]cc(NC(=O)C3CCOCC3)c(=O)n2Cc2ccc(Cl)cc2)ccc1Oc1ccon1` [Compound I-248] was 6 nM.
The result for `O=C(Nc1c[nH]/c(=N\c2ccc(Oc3ccon3)cc2)n(Cc2ccc(Cl)cc2)c1=O)c1ccccc1` [Compound I-253] reads 61 nM.
Regarding `CCn1c(=O)cc(Nc2ccc(Oc3cccc(C(N)=O)n3)c(F)c2)n(Cc2ccc(Cl)cc2)c1=O` [Compound I-026], the IC50 came to 3 nM.
The result for `O=C(O)c1c[nH]/c(=N\c2ccc(Oc3ccc(F)cn3)cc2)n(Cc2ccc(Cl)cc2)c1=O` [Compound I-141] reads 467 nM.
The value for `CN(C)C(=O)CNC(=O)c1cn(Cc2ccc(Cl)cc2)c(Nc2ccc(Oc3ccc(F)cn3)cc2)nc1=O` [Compound I-297] was 21 nM; that for `CCn1c(=O)cc(Nc2ccc(Oc3ccc(C(=O)O)cc3)nc2)n(Cc2ccc(Cl)cc2)c1=O` [Compound I-063] was 422 nM; that for `CCOC(=O)c1cccc(Oc2ccc(Nc3cc(=O)n(CC)c(=O)n3Cc3ccc(Cl)cc3)cn2)c1` [Compound I-060] was 160 nM.
The value for `CCCn1c(=O)cc(Nc2ccc(Oc3cccc(C(=O)O)n3)cn2)n(Cc2ccc(Cl)cc2)c1=O` [Compound I-172] was 16 nM; that for `O=C(Nc1c[nH]/c(=N\c2ccc(Oc3ccon3)cc2)n(Cc2ccc(Cl)cc2)c1=O)c1ccncc1` [Compound I-266] was 68 nM; that for `Cc1noc(C)c1C(=O)Nc1c[nH]/c(=N\c2ccc(Oc3ccon3)cc2)n(Cc2ccc(Cl)cc2)c1=O` [Compound I-256] was 14 nM.
In turn, `Cc1ccc(Oc2ccc(/N=c3\[nH]cc(C(=O)O)c(=O)n3Cc3ccc(Cl)cc3)cc2)nn1` [Compound I-179] gave an IC50 of 359 nM.
The result for `CCCn1c(=O)cc(Nc2ccc(Oc3cccc(C(=O)O)c3)cc2)n(Cc2ccc(Cl)cc2)c1=O` [Compound I-169] reads 11 nM; that for `O=C(O)c1c[nH]/c(=N\c2ccc(Oc3ccon3)cc2)n(Cc2ccc(Cl)cc2)c1=O` [Compound I-099], 534 nM.
The value for `O=C(Nc1cnc(Nc2ccc(Oc3ccc(F)cn3)cc2)n(Cc2ccc(Cl)cc2)c1=O)C1CCOCC1` [Compound I-133] was 1 nM; that for `CCn1c(=O)cc(Nc2ccc(Oc3cccc(C(=O)O)n3)c(C)c2)n(Cc2ccc(Cl)cc2)c1=O` [Compound I-028] was 1 nM.
Compound `CCCn1c(=O)cc(Nc2ccc(Oc3cccc(C#N)n3)c(C)n2)n(Cc2ccc(Cl)cc2)c1=O` [Compound I-187] displayed an IC50 of 4 nM.
The value for `Cn1cc(C(=O)Nc2c[nH]/c(=N\c3ccc(Oc4ccon4)cc3)n(Cc3ccc(Cl)cc3)c2=O)cn1` [Compound I-233] was 236 nM; that for `CCOC(=O)c1sc(Oc2ccc(Nc3cc(=O)n(CC)c(=O)n3Cc3ccc(Cl)cc3)cc2)nc1C` [Compound I-036] was 22 nM; that for `O=C(Nc1cnc(Nc2ccc(Oc3nccs3)cc2)n(Cc2ccc(Cl)cc2)c1=O)C1CCOCC1` [Compound I-131] was 2 nM.
The value for `CCc1oc2ccc(Nc3ncc(NC(=O)C4CCOCC4)c(=O)n3CC3CCCCC3)cc2c1C` [Compound I-080] was 20 nM; that for `CCc1oc2ccc(/N=c3\[nH]cc(CNC4CCOCC4)c(=O)n3Cc3ccc(Cl)cc3)cc2c1C` [Compound I-049] was 225 nM.
The result for `Cc1nc(Nc2cc(=O)n(C[C@H](C)C(=O)O)c(=O)n2Cc2ccc(Cl)cc2)ccc1Oc1cccc(F)c1` [Compound I-245] reads 58 nM; that for `O=C(NC1CCOCC1)c1cn(Cc2ccccn2)c(Nc2ccc(Oc3cccc(F)n3)cc2)nc1=O` [Compound I-295], 618 nM; that for `CCc1oc2ccc(Nc3ncc(C(=O)NC4CCOCC4)c(=O)n3Cc3ccc(Cl)cc3)cc2c1C` [Compound I-019, 1-(4-chlorobenzyl)-2-(2-ethyl-3-methylbenzofuran-5-ylamino)-5-(tetrahydro-2H-pyran-4-ylcarbamoyl)pyrimidin-6(1H)-one], 135 nM.
With `O=C(NCCO)c1c[nH]/c(=N\c2ccc(Oc3ncccc3F)cc2)n(Cc2ccc(Cl)cc2)c1=O` [Compound I-111], 22 nM corresponded to half-maximal inhibition (IC50). This IC50 is about 6.1-fold lower than that of the compound before.
As to `CCc1oc2ccc(/N=c3\[nH]cc(CC(C)(C)O)c(=O)n3Cc3ccc(Cl)cc3)cc2c1C` [Compound I-103], the IC50 is 144 nM. This IC50 is about 6.5-fold higher than that of the compound before.
`CCn1c(=O)cc(Nc2ccc(Oc3cccc(C(=O)O)c3)cn2)n(Cc2ccc(Cl)cc2)c1=O` [Compound I-053] showed an IC50 of 20 nM.
